Results published in US20260364030A1, “NOVEL SELECTIVE INHIBITORS OF LYSYL OXIDASES” (Syntara Limited, priority 2022, published 2026).
Like-named read-outs stand apart in the source and are kept apart here.

Tests used:
[1] = test system: breast cancer model (MMTV-PyMT); settings: cited from earlier work
Bovine LOX = target: T1, Bovine LOX (Bos taurus, UniProt P33072); assay: LOX inhibition, hydrogen peroxide Amplex Red oxidation assay; format: biochemical; settings: 2 h incubation with enzyme at 37 °C
T1 sequence (P33072 170-418): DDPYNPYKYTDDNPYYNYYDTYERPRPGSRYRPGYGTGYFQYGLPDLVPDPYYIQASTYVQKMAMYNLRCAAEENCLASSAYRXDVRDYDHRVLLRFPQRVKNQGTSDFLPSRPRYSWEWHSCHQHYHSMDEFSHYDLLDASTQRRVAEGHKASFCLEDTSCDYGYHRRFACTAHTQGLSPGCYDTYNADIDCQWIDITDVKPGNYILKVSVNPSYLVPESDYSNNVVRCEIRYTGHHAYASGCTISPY
Method: (§1) LOX and LOXL protein family members can be acquired as recombinant active proteins from commercial sources, or extracted from animal tissues like bovine aorta, tendons, pig skin; or prepared from cell cultures. The inhibitory effects of the compounds of the present invention were tested against the given LOX or LOXL preparation using a method based on the detection of hydrogen peroxide with an Amplex Red oxidation assay [Zhou et al, 1997]. The assay was developed using either 384 or 96 well format. Briefly, in a standard black, clear bottom 384 well plate assay 25 µL of a dilution of any of the isoenzymes and orthologues in 1.2 M urea, 50 mM sodium borate buffer (pH 8.2) were added into each well in the presence of […] and 0.5 mM pargyline (to inhibit SSAO and MAO-B and MAO-A, respectively; not necessary if the enzyme is from a recombinant or purified form). […] of a reaction mixture containing twice the KM concentration of putrescine (Sigma Aldrich, e.g. 20 mM for LOX and LOXL1 or 10 mM for LOXL2 and 4 mM for LOXL3 and LOXL4), 120 µM Amplex Red (Thermo Fisher Scientific) and 1.5 U/mL horseradish peroxidase (Sigma Aldrich) prepared in 1.2 M urea, 50 mM sodium borate buffer (pH 8.2) were then added to the corresponding wells. The above volumes were doubled in the case of 96 wells plate. The fluorescence (RFU) was read every 2.5 min for 30 min at 37 °C, excitation 544 nm and emission 590 (Optima; BMG labtech). The slope/min of the kinetics for each well was calculated using MARS data analysis software (BMG labtech) and this value was used to deduce the IC50 value (Dotmatics). The ability of the inventive compounds to inhibit the amine oxidase activity of LOX and other family members is shown in Table 5.

LOXL2 = target: T2, LOXL2 (Homo sapiens, UniProt Q9Y4K0); assay: LOXL2 inhibition, Amplex Red oxidation assay; format: biochemical; settings: 2 h incubation with enzyme at 37 °C; read-out: Human LOXL2 Activity IC50
T2 sequence (Q9Y4K0 26-774): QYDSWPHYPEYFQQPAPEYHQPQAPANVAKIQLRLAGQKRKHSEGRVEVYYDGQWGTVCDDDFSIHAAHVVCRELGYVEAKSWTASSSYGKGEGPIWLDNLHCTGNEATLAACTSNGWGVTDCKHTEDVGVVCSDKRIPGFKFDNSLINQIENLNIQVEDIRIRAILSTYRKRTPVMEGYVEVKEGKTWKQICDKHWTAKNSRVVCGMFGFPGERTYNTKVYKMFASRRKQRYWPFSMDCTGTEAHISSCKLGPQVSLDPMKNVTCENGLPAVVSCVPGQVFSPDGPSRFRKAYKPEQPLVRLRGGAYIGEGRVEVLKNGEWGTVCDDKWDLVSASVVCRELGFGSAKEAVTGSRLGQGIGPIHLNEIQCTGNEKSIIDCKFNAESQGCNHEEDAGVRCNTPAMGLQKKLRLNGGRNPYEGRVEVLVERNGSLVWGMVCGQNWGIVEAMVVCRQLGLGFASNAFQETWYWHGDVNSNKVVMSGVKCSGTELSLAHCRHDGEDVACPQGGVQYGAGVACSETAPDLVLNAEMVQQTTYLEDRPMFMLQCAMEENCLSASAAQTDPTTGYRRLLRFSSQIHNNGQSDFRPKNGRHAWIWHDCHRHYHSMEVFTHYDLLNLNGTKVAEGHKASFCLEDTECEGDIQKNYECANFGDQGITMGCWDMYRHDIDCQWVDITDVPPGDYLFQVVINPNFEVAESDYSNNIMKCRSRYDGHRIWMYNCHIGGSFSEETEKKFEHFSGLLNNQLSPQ
Method: as §1

[2] = test system: massive, pedunculated keloids; settings: cited from earlier work

Row | SMILES | IC50 (Bovine LOX) | IC50 (LOXL2) | other results
1 | CS(=O)(=O)c1cc(-c2ccccc2)cc(S(=O)(=O)c2ccc(CN)s2)c1 [CCT365623] |  |  | Metastasis and survival [1]: reduce metastasis and increase survival
2 | NC/C(=C\F)CS(=O)(=O)c1cccc2c1OCCO2 [Compound 33, (E)-2-(((2,3-dihydrobenzo[b][1,4]dioxin-5-yl)sulfonyl)methyl)-3-fluoroprop-2-en-1-amine] | < 10 µM | < 10 µM | 
3 | NC/C(=C\F)CS(=O)(=O)c1cccc(CN2CCCCCC2=O)c1 [Compound 36, (E)-1-(3-((2-(aminomethyl)-3-fluoroallyl)sulfonyl)benzyl)azepan-2-one] | < 10 µM | < 5 µM | 
4 | COc1cc2c(c(OC)c1OC)-c1ccc(OC)c(=O)cc1[C@@H](NC(C)=O)CC2 [colchicine] |  |  | Effect on surface scarring ([2]; human, in vivo): measurable beneficial effect on surface scarring
5 | CC(C)(S)[C@@H](N)C(=O)O [penicillamine] |  |  | Effect on surface scarring ([2]; BAPN or penicillamine, and colchicine, following excision of keloid and grafting): measurable beneficial effect on surface scarring

Continued, in another order:

Row | IC50 (Bovine LOX) | IC50 (LOXL2) | SMILES | other results
6 | < 5 µM | < 2 µM | CS(=O)(=O)c1cccc(Oc2ccccc2S(=O)(=O)C/C(=C/F)CN)c1 [Compound 35, (E)-3-fluoro-2-(((2-(3-(methylsulfonyl)phenoxy)phenyl)sulfonyl)methyl)prop-2-en-1-amine] | 
7 | < 2 µM | < 2 µM | NC/C(=C/F)CS(=O)(=O)c1ccccc1 [Compound 37, (Z)-3-fluoro-2-((phenylsulfonyl)methyl)prop-2-en-1-amine] | 
